The text below walks through data of patent US20250197387A1, “BCL-XL DEGRADERS AND USES THEREOF” (Kymera Therapeutics, Inc., priority 2021, published 2025).

As a reminder, the Dmax is the largest share of the target that was removed. In general, DC50 refers to the concentration at which degradation of the target reaches its halfway point. As usually defined, the IC50 is the concentration at which inhibition is half-maximal.

Assay type in all cases: cell-based
The target of assay [1] is T1, BCL-XL (Homo sapiens, UniProt Q07817).
T1 construct: endogenous in cells; host or cells: MOLT-4
T1 sequence (Q07817 whole entry): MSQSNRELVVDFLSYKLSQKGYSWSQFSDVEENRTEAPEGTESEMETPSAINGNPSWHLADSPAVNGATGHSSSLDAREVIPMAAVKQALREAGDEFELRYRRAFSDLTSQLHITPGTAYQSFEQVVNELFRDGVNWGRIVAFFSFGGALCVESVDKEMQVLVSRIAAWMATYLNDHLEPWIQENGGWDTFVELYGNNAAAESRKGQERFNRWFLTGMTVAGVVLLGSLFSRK
Kind of assay: BCL-XL degradation assay, western blot in MOLT-4 cells, 16 h. As to conditions: western blot, MOLT-4 cells, 16 h; for Dmax: read-out: Bcl-xL WB in MOLT-4 degradation 16 h: Average Dmax %; for DC50: read-out: Bcl-xL WB in MOLT-4 degradation 16 h: Mean external-Abs DC50. The method, boiled down:
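Infrared-imaged western blots quantified BCL-xL (normalised against beta-actin/GAPDH) after 16 hr, 37° C exposure of MOLT-4 cells to 0.02-10 μM compound; results given as DC50 and Dmax % bins.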
On the technique in general: In western blotting, separated proteins are transferred to a membrane and probed.

Assay [2] has as its target T1, BCL-XL. As to the kind of experiment: Bcl-xL ELISA degradation in MOLT-4 cells, 6 h. As to conditions: for DC50: read-out: Bcl-xL ELISA in MOLT-4 degradation 6 h: Mean external-Abs DC50. The method, then: The letter codes for BCL-XL DC50 include: A (<0.01 μM); B (0.01-0.1 μM); C (>[…]); D (>0.5-1.0 μM); and E (>1.0 μM). The letter codes for Dmax % include A (>75%); B (50 to 75%); C (<50%).

Another assay deals with MOLT-4 cells. Kind of assay: CTG (CellTiter-Glo) cell viability assay, MOLT-4. As to conditions: Homo sapiens, MOLT-4, 72 h, 3 day incubation, read-out: CTG Cell Viability Assay - MOLT-4 3 day: Average external-IC50. The method, boiled down:
(§1)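 IC50 is from a three-parameter logistic fit of CellTiter-Glo luminescence after 3-day treatment of cells seeded at 10,000 per well. Codes: MOLT-4 A <0.1, B 0.1-1.0, C >1.0-3.0, D >3.0 μM; Caki-2 A <0.1, B 0.1-1.0, C >1.0-10.0, D >10.0 μM.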

The subject of another assay is Caki-2 cells. Kind of assay: CTG (CellTiter-Glo) cell viability assay, Caki-2. As to conditions: Homo sapiens, 72 h, 3 day incubation, read-out: CTG Chempartner - Caki-2 3 day: Average external-IC50. The method, boiled down: as §1
For orientation: ATP-based viability assays read luminescence as a measure of living cells.

On to `C#Cc1ccc([C@H](C)NC(=O)[C@@H]2C[C@@H](O)CN2C(=O)[C@@H](NC(=O)CCCCCC(=O)N2CCN(CC[C@H](CSc3ccccc3)Nc3ccc(S(=O)(=O)NC(=O)c4ccc(N5CCN(CC6=C(c7ccc(Cl)cc7)CCC(C)(C)C6)CC5)cc4)cc3S(=O)(=O)C(F)(F)F)CC2)C(C)(C)C)cc1` [I-388], for which the Dmax on BCL-XL [1] was greater than 75%; at BCL-XL [2], 50 to 75%. The figures for the DC50 at BCL-XL [1] and on BCL-XL [2] were 10 to 100 nM and 100 to 500 nM, respectively. In addition, the half-maximal inhibitory concentration (IC50) in the assay on MOLT-4 cells was less than 100 nM; in the assay on Caki-2 cells, greater than 10000 nM.
For the compound `Cc1ncsc1-c1ccc(CNC(=O)[C@@H]2C[C@@H](O)CN2C(=O)[C@@H](NC(=O)CCCS(=O)(=O)NC(=O)c2nc(N3CCc4cccc(C(=O)Nc5nc6cccnc6s5)c4C3)ccc2-c2cnn(CC3CCCCC3)c2C)C(C)(C)C)cc1` [I-351], the Dmax on BCL-XL [1] is 50 to 75%; at BCL-XL [2], greater than 75%. Moreover, the DC50 at BCL-XL [1] and at BCL-XL [2] was 100 to 500 nM each time. For the same compound, the 50% inhibitory concentration (IC50) with MOLT-4 cells is greater than 3000 nM; with Caki-2 cells it was greater than 10000 nM.
For the compound `C#Cc1ccc([C@H](CO)NC(=O)[C@@H]2C[C@@H](O)CN2C(=O)[C@@H](NC(=O)CCc2ccc(S(=O)(=O)NC(=O)c3nc(N4CCc5cccc(C(=O)Nc6nc7cccnc7s6)c5C4)ccc3-c3cnn(CC4CCCCC4)c3C)cc2)C(C)(C)C)cc1` [I-205], the Dmax at BCL-XL [1] and on BCL-XL [2] was greater than 75% each time. Further, the results for the DC50 at BCL-XL [1] and on BCL-XL [2] were less than 10 nM and 10 to 100 nM, respectively. In addition, the 50% inhibitory concentration (IC50) in the assay with MOLT-4 cells was 100 to 1000 nM; in the assay on Caki-2 cells, greater than 10000 nM.
